Measurements reported in the supplement of paper PMC8253809.

Legend:
HGGX39 [1] = paediatric high-grade glioma line; experiment: EC50 (inflection of fitted growth-inhibition curve) (log10 M)
Method in brief: (§1)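 Compounds were delivered by pin tool as a 10-point threefold dilution series with a mean top concentration of 35 μM, in triplicate, to patient-derived pHGG/DIPG cell lines and astrocyte controls growing on 1% Geltrex-coated 384-well plates. Incubation lasted 7 days, or 3 days for iAstro, at 37 °C with 5% CO2. EC50 and maximal response (yFin) come from the three- or four-parameter log-logistic fit with the lowest AICc, applied to pooled, log2-transformed CellTiter-Glo luminescence normalised per plate to % activity between solvent (negative) and positive control wells.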

DIPGX37 [2] = H3.3 K27M diffuse intrinsic pontine glioma line; experiment: as above
Method in brief: as §1

HGGX6 [3] = H3.3 G34R paediatric high-grade glioma line; experiment: as above
Method in brief: as §1

DIPGX29 [4] = H3.3 K27M diffuse intrinsic pontine glioma line; experiment: as above
Method in brief: as §1

HGGX39 [5] = experiment: maximal growth inhibition (yFin) relative to DMSO / staurosporine; higher = more efficacious
Method in brief: as §1

DIPGX37 [6] = experiment: as above
Method in brief: as §1

HGGX6 [7] = experiment: as above
Method in brief: as §1

DIPGX29 [8] = experiment: as above
Method in brief: as §1

HGGX39 [9] = experiment: area under dose-response curve of % growth inhibition (log2 RLU vs DMSO / staurosporine), 1e-11 to 1e-4 M (% x log10 M); higher = more growth inhibition
Method in brief: (§2)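 Area under the curve was derived with the trapezoid rule from a fitted log-logistic curve, switching to a smoothing spline if the sigmoid fit failed. It rested on per-plate % activity between solvent and positive controls, calculated from log2-transformed CellTiter-Glo luminescence after 7 days of exposure (3 days for iAstro) at 37 °C, 5% CO2. Patient-derived pHGG/DIPG lines and astrocytes on 1% Geltrex-coated 384-well plates received a 10-point threefold dilution series, mean top concentration 35 μM, in triplicate.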

DIPGX37 [10] = experiment: as above
Method in brief: as §2

HGGX6 [11] = experiment: as above
Method in brief: as §2

DIPGX29 [12] = experiment: as above
Method in brief: as §2

Compound	EC50 (log10 M) (HGGX39 [1])	EC50 (log10 M) (DIPGX37 [2])	EC50 (log10 M) (HGGX6 [3])	EC50 (log10 M) (DIPGX29 [4])	maximal growth inhibition (HGGX39 [5])	maximal growth inhibition (DIPGX37 [6])	maximal growth inhibition (HGGX6 [7])	maximal growth inhibition (DIPGX29 [8])	area under dose-response curve (HGGX39 [9])	area under dose-response curve (DIPGX37 [10])	area under dose-response curve (HGGX6 [11])	area under dose-response curve (DIPGX29 [12])
COc1cc(NC(C)CCCN)c2ncccc2c1 (stereo not given) [PRIMAQUINE]	-5.5	-5.5	-5.38	-5.69	75.8%	72.9%	78%	72.2%	113	116	107	131
Cc1cc(C2CCCCC2)n(O)c(=O)c1 [CICLOPIROX]	-5.04	-6.44	-6.23	-6.42	72.3%	58.3%	63.9%	57.2%	84.1	142	142	138
Clc1ccc(C(Cn2ccnc2)OCc2ccsc2Cl)c(Cl)c1 (stereo not given) [TIOCONAZOLE]	-4.79	-4.73	-4.82	-4.77	65.3%	78%	46.3%	48.3%	51.3	56	38.1	36.4
CNC(=O)c1cc(Oc2ccc(NC(=O)Nc3ccc(Cl)c(C(F)(F)F)c3)c(F)c2)ccn1 [REGORAFENIB]	-5.33	-5.37	-5.33	-4.87	33.2%	43.5%	38%	37.6%	55.2	62.5	70.8	39.5
Cc1nnc(C[C@@H]2C=C(c3ccc(Cl)cc3)c3ccccc3-n3c(C)nnc32)o1 [BET-BAY 002]	-5.19	-6.21	-5.39	-5.5	39.7%	26.3%	27%	21.8%	42.3	58.2	35.1	29.9
Fc1ccc(C(c2ccc(F)cc2)N2CCN(C/C=C/c3ccccc3)CC2)cc1 [FLUNARIZINE]	-4.91	-4.84	-4.86	-4.86	83%	74.5%	65.9%	71.7%	73.5	62.8	56.4	61.5
CNC(=O)c1ccccc1Sc1ccc2c(/C=C/c3ccccn3)n[nH]c2c1 [AXITINIB]	-5.96		-6.35	-6.07	23.3%		28.6%	21.1%	46.3	55.3	67.6	45.4
CN(C)CCCOc1nn(Cc2ccccc2)c2ccccc12 [BENZYDAMINE]	-5.5	-5.21	-5.19	-5.29	81.4%	85.5%	53.3%	47.7%	123	105	63.8	61.8
O=C(CCCCCCNC(=O)c1cnc(N(c2ccccc2)c2ccccc2)nc1)NO [ROCILINOSTAT]	-4.96	-4.87	-4.9	-4.94	26.8%	39.7%	39.1%	62.1%	25.7	60.5	49.1	63.1
COc1c(C)c2c(c(O)c1C/C=C(\C)CCC(=O)OCCN1CCOCC1)C(=O)OC2 [MYCOPHENOLATE MOFETIL]	-5.61	-5.33	-5.49	-5.33	24.4%	30.5%	20%	24.8%	39.6	41.2	30.4	36.4
Cc1cn(CCN2CCN(c3ccccc3-c3cc(C#N)cc(C(=O)NCCCN4CCCC4)c3)CC2)c2ccccc12 [LLY-507]	-4.84	-5.22	-5.12	-5.13	79.1%	75.6%	79.4%	76.7%	66.6	92.2	92.5	86.5
CN[C@H]1CC[C@@H](c2ccc(Cl)c(Cl)c2)c2ccccc21 [SERTRALINE]	-4.83	-4.82	-4.79	-4.86	91.4%	86.5%	81%	85.3%	83.8	70	63.3	73.3
CCN(CC)CCCC(C)Nc1c2ccc(Cl)cc2nc2ccc(OC)cc12 (stereo not given) [QUINACRINE]	-4.75	-4.78	-4.97	-4.79	74.3%	72.4%	74.3%	74.8%	55.7	56	73.7	79.9
Cc1nn(C)c(COc2ccc(N3CCN(S(=O)(=O)N(C)C)CC3)cc2)c1-c1cccc2c(CCCOc3cccc4ccccc34)c(C(=O)O)n(CCN3CCOCC3)c12		-4.73		-4.9		110%		92.1%	0	79.7	4.05	81.7
Cn1cnc2c(F)c(Nc3ccc(Br)cc3Cl)c(C(=O)NOCCO)cc21 [SELUMETINIB]		-4.93		-4.87		83.2%		34.5%	14.2	96	26.8	52.5
COc1cc2c(cc1-c1c(C)noc1C)ncc1[nH]c(=O)n([C@H](C)c3ccccn3)c12 [I-BET151]	-5.03	-5.65		-5.05	45%	25.8%		21.8%	47.5	43.5	37.1	31.6
Nc1nc2[nH]cnc2c(=S)[nH]1 [THIOGUANINE]	-5.68	-5.44		-5.83	22.1%	60.4%		35.6%	33.7	89.3	21.6	59.5
Nc1ccn([C@@H]2O[C@H](CO)[C@@H](O)C2(F)F)c(=O)n1 [GEMCITABINE]				-8.08				20.3%	68.9	83.9	54.2	81.9

Compound	EC50 (log10 M) (HGGX39 [1])	EC50 (log10 M) (DIPGX37 [2])	EC50 (log10 M) (HGGX6 [3])	EC50 (log10 M) (DIPGX29 [4])	maximal growth inhibition (HGGX39 [5])	maximal growth inhibition (DIPGX37 [6])	maximal growth inhibition (HGGX6 [7])	maximal growth inhibition (DIPGX29 [8])	area under dose-response curve (HGGX39 [9])	area under dose-response curve (DIPGX37 [10])	area under dose-response curve (HGGX6 [11])	area under dose-response curve (DIPGX29 [12])
CC(C)NC[C@@H](C(=O)N1CCN(c2ncnc3c2[C@H](C)C[C@H]3O)CC1)c1ccc(Cl)cc1 [IPATASERTIB]		-5.27	-5.67	-5.18		21.5%	31.8%	50.3%	11.9	25.8	49	64.7
CCNc1nc(Nc2cc(F)c(C(=O)N3CCOCC3)cc2OC)ncc1C(F)(F)F [GNE-7915]	-4.79			-4.82	38.7%			28.7%	29.7	15.9	21.1	23.5
Clc1ccccc1C(c1ccccc1)(c1ccccc1)n1ccnc1 [CLOTRIMAZOLE]	-5.21		-5.22	-4.92	23%		26.3%	29.5%	27.8	13.3	31.5	27.2
CC[C@]1(O)C[C@@H]2CN(CCc3c([nH]c4ccccc34)[C@@](C(=O)OC)(c3cc4c(cc3OC)N(C)[C@H]3[C@@](O)(C(=O)OC)[C@H](OC(C)=O)[C@]5(CC)C=CCN6CC[C@]43[C@@H]65)C2)C1 [VINBLASTINE]			-5.46	-5.63			23.5%	50.4%	53.5	58.2	58.8	88.8
Clc1ccc(NN=C(c2ccccc2)c2ccccn2)nc1 [JIB-04]	-5.02		-5.07	-5.13	34.3%		50.7%	47.2%	34.4	25.7	61.4	63.6
C=C[C@]1(C)C[C@@H](OC(=O)CSC(C)(C)CNC(=O)[C@H](N)C(C)C)[C@]2(C)[C@H](C)CC[C@]3(CCC(=O)[C@H]32)[C@@H](C)[C@@H]1O [VALNEMULIN]	-5.56	-4.79		-4.85	30.5%	30.2%		55.5%	42.1	24	12	59.9
Cc1cc(C)c(S(=O)(=O)N(Cc2ccc(-c3cccc(S(C)(=O)=O)c3)cc2)Cc2ccc(C(F)(F)F)o2)c(C)c1 [GSK-2033]				-5.05				87.3%	0	22.5	30.1	89
Nc1ncnc2c1ncn2[C@@H]1O[C@H](C[C@@H](N)CC[C@H](N)C(=O)O)[C@@H](O)[C@H]1O [SINEFUNGIN]				-5.35				21.5%	0	0	4.01	29
O=c1[nH]c(=O)n([C@H]2C[C@H](O)[C@@H](CO)O2)cc1F [FLOXURIDINE]				-5.39				30%	26.8	18.8	23.5	46.2
Cc1nc2c([nH]1)-c1ccccc1N(C(=O)c1ccc(NC(=O)c3ccccc3-c3ccccc3)cc1)CC2 [CONIVAPTAN]	-4.73	-4.59		-4.73	83.9%	36%		26.5%	60.9	35.9	6.44	29.9
CC(=O)N1c2ccc(-c3ccc(C(=O)O)cc3)cc2[C@H](Nc2ccc(Cl)cc2)C[C@@H]1C [I-BET726]	-5.73	-6.37		-5.48	37.7%	37.1%		30%	55.9	79.4	44.5	43
O=C(O)C[C@H](O)C[C@H](O)/C=C/c1c(C2CC2)nc2ccccc2c1-c1ccc(F)cc1 [PITAVASTATIN]	-6.26		-5.36	-5.04	92.9%		66.4%	49.2%	215	121	95.1	75.6
CCC(CC)(NC(=O)C(C)C)C(=O)N[C@@H](CCCN=C(N)N)C(=O)NC1(C(=O)NC(c2ccc(F)cc2)c2ccc(F)cc2)CCCC1 [MM-102]			-5.03	-5.17			63.5%	33.9%	12.2	6.41	65.5	39.7
CN(C)CCCNC(=O)c1ccc(-c2cc(O)c3ncccc3c2)cc1 [ML324]			-4.67	-4.82			44.1%	43.7%	14.9	4.39	29.4	35.8
CC[C@H](C)n1cc(C)c2c(C(=O)NCc3c(C)cc(C)[nH]c3=O)cc(-c3ccc(N4CCNCC4)nc3)cc21 [GSK126]		-4.88	-4.83	-4.87		76.7%	74.4%	76.4%	13.1	74.3	61.2	66.1
S=c1[nH]cnc2nc[nH]c12 [MERCAPTOPURINE]			-5.3	-6.35			21.1%	20.5%	28	38	25.5	44.1
Nc1nccc2c1ncn2[C@@H]1C=C(CO)[C@@H](O)[C@H]1O [3-DEAZANEPLANOCIN]				-7.53				21.5%	33.5	16.8	36.5	76
CCCSc1ccc2[nH]c(NC(=O)OC)nc2c1 [ALBENDAZOLE]	-6.13	-6.1	-5.18		32%	28.7%	23%		66	60.2	28.7	33.5
